Key:
Format in all cases: in vivo
[1] = system: Ipomoea hederacea (IPOHE); test: Post-emergence glasshouse herbicide test; conditions: POST Application, 1000 g/h, after 13 days
Description: (§1) Seeds of a variety of test species are sown in standard soil in pots (Alopecurus myosuroides (ALOMY), Setaria faberi (SETFA), Echinochloa crus-galli (ECHCG), Solanum nigrum (SOLNI), Amaranthus retoflexus (AMARE), Ipomoea hederacea (IPOHE)). After cultivation for one day (pre-emergence) or after 8 days cultivation (post-emergence) under controlled conditions in a glasshouse (at 24/16° C., day/night; 14 hours light; 65% humidity), the plants are sprayed with an aqueous spray solution derived from the formulation of the technical active ingredient in acetone/water (50:50) solution containing 0.5% Tween 20 (polyoxyethelyene sorbitan monolaurate, CAS RN 9005-64-5). Compounds ae applied at 1000 g/h. The test plants are then grown in a glasshouse under controlled conditions in a glasshouse (at 24/16° C., day/night; 14 hours light; 65% humidity) and watered twice daily. After 13 days for pre and post-emergence, the test is evaluated for the percentage damage caused to the plant. The biological activities are shown in the following table on a five point scale (5=80-100%; 4=60-79%; 3=40-59%; 2=20-39%; 1=0-19%).

[2] = system: Echinochloa crus-galli (ECHCG); test: Post-emergence glasshouse herbicide test; conditions: POST Application, 1000 g/h, after 13 days
Description: as §1

[3] = system: Solanum nigrum (SOLNI); test: Post-emergence glasshouse herbicide test; conditions: POST Application, 1000 g/h, after 13 days
Description: as §1

[4] = system: Alopecurus myosuroides (ALOMY); test: Post-emergence glasshouse herbicide test; conditions: POST Application, 1000 g/h, after 13 days
Description: as §1

[5] = system: Amaranthus retoflexus (AMARE); test: Post-emergence glasshouse herbicide test; conditions: POST Application, 1000 g/h, after 13 days
Description: as §1

[6] = system: Ipomoea hederacea (IPOHE); test: Pre-emergence glasshouse herbicide test; conditions: PRE Application, 1000 g/h, after 13 days
Description: as §1

[7] = system: Setaria faberi (SETFA); test: Pre-emergence glasshouse herbicide test; conditions: PRE Application, 1000 g/h, after 13 days
Description: as §1

[8] = system: Echinochloa crus-galli (ECHCG); test: Pre-emergence glasshouse herbicide test; conditions: PRE Application, 1000 g/h, after 13 days
Description: as §1

[9] = system: Solanum nigrum (SOLNI); test: Pre-emergence glasshouse herbicide test; conditions: PRE Application, 1000 g/h, after 13 days
Description: as §1

[10] = system: Alopecurus myosuroides (ALOMY); test: Pre-emergence glasshouse herbicide test; conditions: PRE Application, 1000 g/h, after 13 days
Description: as §1

[11] = system: Amaranthus retoflexus (AMARE); test: Pre-emergence glasshouse herbicide test; conditions: PRE Application, 1000 g/h, after 13 days
Description: as §1

[12] = system: Setaria faberi (SETFA); test: Post-emergence glasshouse herbicide test; conditions: POST Application, 1000 g/h, after 13 days
Description: as §1, with “Compounds ae applied at 1000 g/h.” left out

SMILES | percentage damage caused to the plant, IPOHE [1] | percentage damage caused to the plant, ECHCG [2] | percentage damage caused to the plant, SOLNI [3] | percentage damage caused to the plant, ALOMY [4] | percentage damage caused to the plant, AMARE [5] | percentage damage caused to the plant, IPOHE [6] | percentage damage caused to the plant, SETFA [7] | percentage damage caused to the plant, ECHCG [8] | percentage damage caused to the plant, SOLNI [9] | percentage damage caused to the plant, ALOMY [10] | percentage damage caused to the plant, AMARE [11] | percentage damage caused to the plant, SETFA [12]
Cn1nnnc1NC(=O)c1cc2cccnc2n(C)c1=O [Compound 1.001] | 2 (2=20-39%) | 3 (3=40-59%) | 5 (5=80-100%) | 1 (1=0-19%) | 3 (3=40-59%) | 1 (1=0-19%) | 1 (1=0-19%) | 1 (1=0-19%) | 2 (2=20-39%) | 1 (1=0-19%) | 2 (2=20-39%) | 1 (1=0-19%)
Cn1nnnc1NC(=O)c1cc2cnc(Cl)cc2n(-c2ccccc2)c1=O [Compound 2.001] | 5 (5=80-100%) | 1 (1=0-19%) | 5 (5=80-100%) | 1 (1=0-19%) | 5 (5=80-100%) | 2 (2=20-39%) | 1 (1=0-19%) | 1 (1=0-19%) | 4 (4=60-79%) | 1 (1=0-19%) | 5 (5=80-100%) | 1 (1=0-19%)
CCn1c(=O)c(C(=O)Nc2nnnn2C)cc2cnc(Cl)cc21 [Compound 2.002] | 5 (5=80-100%) | 2 (2=20-39%) | 5 (5=80-100%) | 1 (1=0-19%) | 5 (5=80-100%) | 3 (3=40-59%) | 1 (1=0-19%) | 2 (2=20-39%) | 4 (4=60-79%) | 1 (1=0-19%) | 5 (5=80-100%) | 1 (1=0-19%)
CCn1c(=O)c(C(=O)Nc2nnnn2C)cc2cnccc21 [Compound 2.003] | 2 (2=20-39%) | 1 (1=0-19%) | 3 (3=40-59%) | 1 (1=0-19%) | 3 (3=40-59%) | 1 (1=0-19%) | 1 (1=0-19%) | 1 (1=0-19%) | 1 (1=0-19%) | 1 (1=0-19%) | 1 (1=0-19%) | 1 (1=0-19%)
Cn1nnnc1NC(=O)c1nc2cc(C(F)(F)F)ccc2n(C)c1=O [Compound 3.001] | 3 (3=40-59%) | 2 (2=20-39%) | 4 (4=60-79%) | 1 (1=0-19%) | 4 (4=60-79%) | 1 (1=0-19%) | 1 (1=0-19%) | 2 (2=20-39%) | 3 (3=40-59%) | 1 (1=0-19%) | 2 (2=20-39%) | 2 (2=20-39%)
Cn1nnnc1NC(=O)c1nc2cccnc2n(C)c1=O [Compound 4.001] | 4 (4=60-79%) | 5 (5=80-100%) | 5 (5=80-100%) | 1 (1=0-19%) | 5 (5=80-100%) | 3 (3=40-59%) | 1 (1=0-19%) | 4 (4=60-79%) | 5 (5=80-100%) | 1 (1=0-19%) | 5 (5=80-100%) | 2 (2=20-39%)
Cn1nnnc1NC(=O)c1nc2cccnc2n(-c2ccccc2)c1=O [Compound 4.002] | 1 (1=0-19%) | 1 (1=0-19%) | 3 (3=40-59%) | 1 (1=0-19%) | 2 (2=20-39%) | 1 (1=0-19%) | 1 (1=0-19%) | 1 (1=0-19%) | 1 (1=0-19%) | 1 (1=0-19%) | 1 (1=0-19%) | 1 (1=0-19%)
Cn1nnnc1NC(=O)c1nc2ccccc2n(C)c1=O [Compound 5.002] | 5 (5=80-100%) | 4 (4=60-79%) | 5 (5=80-100%) | 1 (1=0-19%) | 5 (5=80-100%) | 5 (5=80-100%) | 1 (1=0-19%) | 5 (5=80-100%) | 5 (5=80-100%) | 1 (1=0-19%) | 5 (5=80-100%) | 1 (1=0-19%)
Cc1cccc(-n2c(=O)c(C(=O)Nc3nnnn3C)nc3ccccc32)n1 [Compound 5.003] | 5 (5=80-100%) | 5 (5=80-100%) | 5 (5=80-100%) | 5 (5=80-100%) | 5 (5=80-100%) | 5 (5=80-100%) | 5 (5=80-100%) | 5 (5=80-100%) | 5 (5=80-100%) | 5 (5=80-100%) | 5 (5=80-100%) | 5 (5=80-100%)
Cn1nnnc1NC(=O)c1nc2ccccc2n(-c2ccccc2)c1=O [Compound 5.004] | 5 (5=80-100%) | 3 (3=40-59%) | 5 (5=80-100%) | 2 (2=20-39%) | 5 (5=80-100%) | 5 (5=80-100%) | 4 (4=60-79%) | 5 (5=80-100%) | 5 (5=80-100%) | 3 (3=40-59%) | 5 (5=80-100%) | 2 (2=20-39%)
Cn1nnnc1NC(=O)c1nc2ccccc2n(-c2ccsc2)c1=O [Compound 5.005] | 5 (5=80-100%) | 5 (5=80-100%) | 5 (5=80-100%) | 2 (2=20-39%) | 5 (5=80-100%) | 5 (5=80-100%) | 3 (3=40-59%) | 5 (5=80-100%) | 5 (5=80-100%) | 2 (2=20-39%) | 5 (5=80-100%) | 5 (5=80-100%)
